Data on ten compounds can be found in ChEMBL document CHEMBL1201862, “PubChem BioAssay data set” (2004).

Test systems include A498; ACHN; CCRF-CEM; DU-145; HCT-116; HOP-92; KM12; LOX IMVI; MOLT-4; NCI-H226; NCI-H23; NCI-H522; OVCAR-3; OVCAR-8; RPMI-8226; SK-OV-3; SN12C; U-251; UACC-257; UACC-62.
Assay in all cases: inhibition of tumour cell growth, NCI panel, 48 h

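Where inhibition never reached the appropriate level, the endpoint shown equals the highest concentration tested. Otherwise, values were interpolated linearly from a five-concentration, 48-hour dose response in 96-well plates. Here, GI50 denotes the concentration required for 50% inhibition of growth.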 Activity calls are given as the source filed them. Cut-off read from the data, not from the text of the source: active = GI50 up to about 1.1 µM and inactive = higher. Bounds are passed on as bounds.

For `Cc1nc2c(C)c3c([nH]c4ccc(Cl)cc43)c(C)c2c(O)c1C`, the GI50 was 15.3 µM (inactive) in the test on A498; 2.75 µM (inactive) with ACHN; 2.91 µM (inactive) with CCRF-CEM; 5.71 µM (inactive) in the test on DU-145; 4.29 µM (inactive) in the test on HCT-116; 9.53 µM (inactive) with HOP-92. The GI50 in the test on KM12 is 10.4 µM (inactive); in the test with LOX IMVI it was 4.06 µM (inactive); in the test with MOLT-4, 1.63 µM (inactive); in the test on NCI-H226, 4.82 µM (inactive); in the test with NCI-H23 it was 4.68 µM (inactive); with NCI-H522 it was 4.16 µM (inactive). Further, the GI50 in the test on OVCAR-3 is 7.94 µM (inactive); in the test on OVCAR-8 it was 4.88 µM (inactive); in the test on RPMI-8226, 3.3 µM (inactive); in the test on SK-OV-3, 16.5 µM (inactive); with SN12C, 5.24 µM (inactive); with U-251 it was 5.73 µM (inactive). For the same compound, the GI50 with UACC-257 was 13.9 µM (inactive); in the test on UACC-62, 6.44 µM (inactive).
Turning to `CCOc1ccc(C2c3[nH]c4ccccc4c3CCN2C(=O)c2cccs2)cc1` (stereo not given), the GI50 in the test on A498 was 7.4 µM (inactive); in the test on ACHN it was 44.5 µM (inactive); in the test on CCRF-CEM, 3.48 µM (inactive); in the test on DU-145, 68.9 µM (inactive); in the test on HCT-116, 4.8 µM (inactive); with HOP-92, > 100 µM (inactive). In addition, the GI50 in the test on KM12 was 9.08 µM (inactive); with LOX IMVI it was 6.52 µM (inactive); with MOLT-4, 2.65 µM (inactive); in the test on NCI-H226 it was 3.06 µM (inactive); with NCI-H23, 56.4 µM (inactive); with NCI-H522, 9.79 µM (inactive). Moreover, the GI50 is 9.89 µM (inactive) in the test on OVCAR-3; 36.4 µM (inactive) in the test on OVCAR-8; 5.41 µM (inactive) in the test with RPMI-8226; > 100 µM (inactive) in the test with SK-OV-3; > 100 µM (inactive) in the test on SN12C; 4.07 µM (inactive) in the test with U-251. Moreover, the GI50 in the test with UACC-257 was 17.3 µM (inactive); in the test on UACC-62, 6.04 µM (inactive).
For `CCOC(=O)C1=C(C)NC(=S)NC1c1cccc(O)c1` (stereo not given) [MONASTROL], the GI50 with A498 was 37.1 µM (inactive); in the test with ACHN, 85.3 µM (inactive); in the test with CCRF-CEM, 34.7 µM (inactive); with DU-145 it was 76.6 µM (inactive); in the test on HCT-116 it was 34.9 µM (inactive); with HOP-92, 32.4 µM (inactive). Further, the GI50 is 35 µM (inactive) in the test with KM12; 72.8 µM (inactive) in the test with LOX IMVI; 33.6 µM (inactive) in the test on MOLT-4; 55 µM (inactive) in the test with NCI-H226; 59.8 µM (inactive) with NCI-H23; 30.3 µM (inactive) in the test with NCI-H522. Besides, the GI50 was 50.9 µM (inactive) in the test with OVCAR-3; 57.7 µM (inactive) in the test with OVCAR-8; 31 µM (inactive) in the test with RPMI-8226; 57.8 µM (inactive) with SK-OV-3; 35.5 µM (inactive) in the test on SN12C; 33.9 µM (inactive) in the test with U-251. Besides, the figures for the GI50 in the test on UACC-257 and in the test with UACC-62 were 62.7 µM (inactive) and 36.6 µM (inactive), respectively.
As for `CC/C(Cl)=N\OC(=O)Nc1ccc(OC)cc1`, the GI50 in the test on A498 is 18.2 µM (inactive); with ACHN it was 1.92 µM (inactive); in the test on CCRF-CEM, 1.75 µM (inactive); with DU-145, 17.3 µM (inactive); in the test on HCT-116, 5.86 µM (inactive); with HOP-92, 2.43 µM (inactive). Also, the GI50 with KM12 is 15.1 µM (inactive); in the test with LOX IMVI it was 2.03 µM (inactive); with MOLT-4, 2.07 µM (inactive); with NCI-H226, 12.2 µM (inactive); in the test with NCI-H23, 15.4 µM (inactive); with NCI-H522 it was 0.847 µM (active). For the same compound, the GI50 in the test on OVCAR-3 is 5.68 µM (inactive); with OVCAR-8, 15 µM (inactive); with RPMI-8226 it was 1.9 µM (inactive); with SK-OV-3 it was 17.5 µM (inactive); in the test on SN12C it was 6.55 µM (inactive); in the test on U-251, 19.5 µM (inactive). The GI50 with UACC-257 was 15.7 µM (inactive); in the test on UACC-62 it was 8.57 µM (inactive).
In the case of `Cc1ccc2nc(-c3ccccc3)c(N=O)n2c1`, the GI50 in the test with A498 was > 100 µM (inactive); in the test with ACHN, 46.9 µM (inactive); with CCRF-CEM, 38.5 µM (inactive); with DU-145 it was 46.6 µM (inactive); in the test on HCT-116 it was 35.7 µM (inactive); in the test with HOP-92, 77.1 µM (inactive). For the same compound, the GI50 in the test on KM12 was 40.6 µM (inactive); with LOX IMVI it was 46.5 µM (inactive); with MOLT-4, 28.4 µM (inactive); with NCI-H226 it was 29.1 µM (inactive); in the test on NCI-H23, 36.1 µM (inactive); in the test on NCI-H522 it was 36.1 µM (inactive). Also, the GI50 in the test on OVCAR-3 was 32.4 µM (inactive); with OVCAR-8, 41 µM (inactive); in the test on RPMI-8226 it was 36.1 µM (inactive); with SK-OV-3, > 100 µM (inactive); with SN12C, 20.2 µM (inactive); in the test with U-251, 38.9 µM (inactive). For the same compound, the GI50 in the test on UACC-257 is 37 µM (inactive); with UACC-62 it was 22.6 µM (inactive).
In the case of `CC(=O)OC1CC2CC(=O)CC1N2C` (stereo not given), the GI50 in the test on A498, in the test on ACHN, in the test on CCRF-CEM, in the test on DU-145, in the test on HCT-116 and in the test with HOP-92 was > 100 µM (inactive) throughout. In addition, the GI50 in the test on KM12, in the test with LOX IMVI, in the test on MOLT-4, in the test on NCI-H226, in the test on NCI-H23 and with NCI-H522 was > 100 µM (inactive) in each case. For the same compound, the GI50 in the test with OVCAR-3 was > 100 µM (inactive); in the test on OVCAR-8, > 100 µM (inactive); in the test with RPMI-8226, 68.7 µM (inactive); in the test with SK-OV-3, > 100 µM (inactive); with SN12C, > 100 µM (inactive); in the test with U-251, > 100 µM (inactive). In addition, the GI50 in the test with UACC-257 and with UACC-62 was > 100 µM (inactive) in each case.
With `C[C@H](CCC(=O)NCC(=O)O)[C@H]1CC[C@H]2[C@@H]3[C@H](O)C[C@@H]4C[C@H](O)CC[C@]4(C)[C@H]3CC[C@]12C`, the GI50 with A498, with ACHN, in the test with CCRF-CEM, in the test with DU-145, in the test with HCT-116 and in the test with HOP-92 was > 100 µM (inactive) in each case. In addition, the GI50 in the test with KM12, in the test with LOX IMVI, in the test with MOLT-4, in the test with NCI-H226, in the test on NCI-H23 and in the test on NCI-H522 was > 100 µM (inactive) each time. The GI50 in the test on OVCAR-3, with OVCAR-8, with RPMI-8226, with SK-OV-3, with SN12C and in the test with U-251 was > 100 µM (inactive) each time. Further, the GI50 in the test on UACC-257 and with UACC-62 was > 100 µM (inactive) throughout.
On to `Nc1nnc2oc3ccc4ccccc4c3cc1-2`, for which the GI50 in the test on A498 is 24.6 µM (inactive); with ACHN it was 20 µM (inactive); with CCRF-CEM it was 24.5 µM (inactive); in the test with DU-145, 56.5 µM (inactive); in the test on HCT-116, 34.4 µM (inactive); with HOP-92 it was 26.2 µM (inactive). Moreover, the GI50 is 29.7 µM (inactive) with KM12; 23.5 µM (inactive) in the test on LOX IMVI; 27.7 µM (inactive) with MOLT-4; 21.5 µM (inactive) with NCI-H226; 42.8 µM (inactive) with NCI-H23; 24.4 µM (inactive) with NCI-H522. In addition, the GI50 in the test with OVCAR-3 was 34.8 µM (inactive); with OVCAR-8 it was 32.4 µM (inactive); in the test on RPMI-8226 it was 30.5 µM (inactive); in the test with SK-OV-3 it was 67.5 µM (inactive); in the test on SN12C, 22.9 µM (inactive); in the test with U-251, 35.9 µM (inactive). The GI50 is 28.2 µM (inactive) in the test on UACC-257 and 29 µM (inactive) in the test with UACC-62.
In the case of `O=C1CCC(c2ccccc2)=NN1c1nc2ccccc2s1`, the GI50 is 30.1 µM (inactive) with A498; 29.9 µM (inactive) in the test on ACHN; 23.1 µM (inactive) with CCRF-CEM; 22.9 µM (inactive) in the test with DU-145; 29.5 µM (inactive) in the test with HCT-116; 26.7 µM (inactive) in the test with HOP-92. Also, the GI50 in the test with KM12 is 29.6 µM (inactive); in the test on LOX IMVI it was 38.6 µM (inactive); in the test on MOLT-4 it was 28 µM (inactive); with NCI-H226 it was 90.8 µM (inactive); in the test on NCI-H23, 30.2 µM (inactive); in the test on NCI-H522, 24.5 µM (inactive). The GI50 in the test with OVCAR-3 was 17.9 µM (inactive); in the test with OVCAR-8, 34.8 µM (inactive); in the test with RPMI-8226, 27 µM (inactive); in the test on SK-OV-3, 25.2 µM (inactive); in the test on SN12C, 29.4 µM (inactive); with U-251, 29.4 µM (inactive). The results for the GI50 with UACC-257 and with UACC-62 were 27.2 µM (inactive) and 30.3 µM (inactive), respectively.
Regarding `COc1cccc(C[C@H]2COC(=O)[C@]2(O)Cc2cccc(OC)c2)c1`, the GI50 in the test with A498 was > 100 µM (inactive); in the test on ACHN, > 100 µM (inactive); in the test with CCRF-CEM it was > 100 µM (inactive); with DU-145, > 100 µM (inactive); in the test on HCT-116, > 100 µM (inactive); in the test on HOP-92, 79.6 µM (inactive). Also, the GI50 in the test with KM12 was 91.2 µM (inactive); with LOX IMVI it was > 100 µM (inactive); in the test on MOLT-4, 53.1 µM (inactive); with NCI-H226 it was > 100 µM (inactive); in the test with NCI-H23 it was > 100 µM (inactive); with NCI-H522 it was 55.7 µM (inactive). Also, the GI50 with OVCAR-3 was 97.5 µM (inactive); in the test with OVCAR-8, > 100 µM (inactive); in the test on RPMI-8226, 93.3 µM (inactive); with SK-OV-3 it was > 100 µM (inactive); in the test on SN12C, > 100 µM (inactive); in the test with U-251 it was > 100 µM (inactive). Besides, the GI50 was > 100 µM (inactive) in the test with UACC-257 and 60.1 µM (inactive) with UACC-62.
